# Reference: patent US20080221205A1, “FURAN DERIVATIVES FOR PREVENTING AND CURING OSTEOPOROSIS AND PHARMACEUTICAL COMPOSITIONS CONTAINING THE SAME” (priority 2002, published 2008)
# “Also recorded” adds a separate entry of the source.
# Tested on: ovariectomized white mice
# Test: Therapeutic effect on osteoporosis: tibia histology, oral administration from four weeks after ovariectomy
# Assay type: in vivo
# Details: four weeks to develop osteoporosis, then oral 220 μl/day for four weeks, versus control
# Protocol: In order to evaluate effects of the compound of the present invention on treatment and prevention of osteoporosis, female white mice with osteoporosis induced by ovariectomy were used as a disease model. After ovariectomy, mice were administered with the compound of the present invention. Tibias were dissected from the mice, and observed histologically.
# After anesthetizing female white mice with 100 mg/kg of Ketamine (Ketara) and 0.15 ml/kg of 2% Xylazine (Rompun), the lumbar dorsum is shaved bilaterally and the exposed skin was prepared for aseptic surgery by a 10% povidone-iodine scrub followed by a 70% alcohol wipe.
# A 1-cm incision was made in the central region of the abdomen, and the ovary was identified along with the uterus with caution not to damage the main organs such as the liver and diaphragm. After ligating the uterus with a thread for suturing, the exposed ovary was severed toward both sides and removed. Thereafter, each organ was relocated to its original position, and the incision was closed with a thread for suturing in an interrupted pattern. After ovariectomy, the mice were injected with 50 mg/kg of cefazolin antibiotic for prevention of infection with pathogens.
# In order to evaluate therapeutic effect of the Compound 1 on osteoporosis, after ovariectomy, the mice were fed with solid feedstuff for four weeks. […]
smiles,measurement,value
"O=Cc1ccc(CO)o1 [Compound 1, 5-hydroxymethylfuran-2-carboxyaldehyde]","Trabecular bone density of tibia, light microscopy",just a slight decrease in trabecular bone density; also recorded: no trabecular bone loss
